Consider six compounds from publication PMC5820647, “Simultaneous Quantification of Gallic Acid, Bergenin, Epicatechin, Epicatechin Gallate, Isoquercitrin, and Quercetin-3-Rhamnoside in Rat Plasma by LC-MS/MS Method and Its Application to Pharmacokinetics after Oral Administration of Ardisia japonica Extract” (Evidence-based Complementary and Alternative Medicine : eCAM, 2018).

A short description of data set [1]: Pharmacokinetic study in rats after oral administration of A. japonica extract (LC-MS/MS of plasma). To be noted: male, Sprague-Dawley; for Tmax: n = 10; for MRT: read-out: MRT(0–t24 h); for MRT inf: read-out: MRT(0–∞); for Cmax: read-out: peak plasma concentration (Cmax). Format: in vivo. On the procedure: The LC-MS/MS system consisted of an Agilent 1200 system coupled with a binary pump (G1312A), an autosampler (G13678), a vacuum degasser (G1322A), and an API 3200 triple quadrupole mass spectrometer with an ESI source. […] The flow rate was set at 300 μL min^−1 and the inject volume was 10 μL.
The analytes were determined in negative mode and quantified by multiple-reaction monitoring (MRM) mode. The source parameters were as follows: curtain gas, 25 psi; collision gas, 12 psi; ion spray voltage, −4500 V; temperature, 500°C; ion source gas 1, 45 psi; and ion source gas 2, 55 psi, respectively. Data acquisition was operated by Analyst 1.4.2 software (AB Sciex).
100 μL of plasma sample, 10 μL of the IS solutions, and 10 μL of 30% formic acid were added to the tube. Samples were vortex-mixed for 1 min, and 400 μL of acetonitrile was then used in precipitating the protein, after which they were centrifuged for 10 min at 14,000 rpm. The supernatant was transferred into another centrifuge tube and evaporated using nitrogen gas to dryness. The dried residue was reconstituted using 100 μL of methanol. The sample was further shaken and ultrasonicated for 2 min to ensure that it was well dissolved. It was subsequently centrifuged at 14,000 rpm for 10 min, and 10 μL aliquot of the solution was injected into the LC-MS/MS system for analysis.
Ten male Sprague-Dawley rats (270–280 g) were kept at the animal center of Tianjin University of Traditional Chinese Medicine (Tianjin, China) under environmentally controlled conditions. […] According to the clinical dose used in human, the rat dose of A. japonicae extracts used was 0.93 g kg^−1. […] After blood sample collection into the heparinized 1.5 mL polythene tubes and centrifugation at 6000 rpm for 10 min, the plasma was transferred into clean tubes and stored in a freezer at −20°C until analysis. The pharmacokinetic parameters were determined using pharmacokinetics program (DAS1.0 Medical College of Wannan, China) and performing a one compartmental analysis.

The format of data set [2] is physicochemical. Conditions: for Free-throw 3 times Accuracy: 3 cycles freezing at about −20°C and thawing at room temperature; for 24 h stability Accuracy: autosampler, room temperature. On the procedure:
The standard stock solutions of gallic acid, bergenin, epicatechin, epicatechin gallate, isoquercitrin, and quercetin-3-rhamnoside were prepared by dissolving each separately in methanol to achieve a concentration of 1 mg mL^−1 for use as the stock solution. The three ISs including ferulic acid, puerarin, and warfarin were prepared using the same procedure as mentioned above with the concentration being 1 μg mL^−1. Calibration standard solutions were prepared by spiking the different concentrations of the standard mixture working solutions into plasma to achieve the concentration range of 2–500 ng mL^−1 for gallic acid; 2–500 ng mL^−1 for bergenin; 4–1000 ng mL^−1 for epicatechin; 2–500 ng mL^−1 for epicatechin gallate; 1–250 ng mL^−1 for isoquercitrin; and 0.4–100 ng mL^−1 for quercetin-3-rhamnoside. The QC samples were prepared by spiking 10 μL of the standard stock solutions into 100 μL of blank plasma to achieve LLOQ, low, medium and high concentrations of 2, 6, 20, and 200 ng mL^−1 for gallic acid; 2, 6, 20, and 200 ng mL^−1 for bergenin; 4, 12, 40, and 400 ng mL^−1 for epicatechin; 2, 6, 20, and 200 ng mL^−1 for epicatechin gallate; 1, 3, 10, and 100 ng mL^−1 for isoquercitrin; and 0.4, 1.2, 4, and 40 ng mL^−1 for quercetin-3-rhamnoside.
The stability for 6 analysis compounds including 24 h stability (keeping the sample in autosampler conditions of room temperature for 24 h), three freeze/thaw cycles (subjected to 3 cycles of freezing at about −20°C and thawing at room temperature), and a long-term stability (stored at about −80°C for 4 weeks) of analytes in plasma was performed by analyzing QC samples at four different concentrations.

Setting [3] is: rat, plasma, po, 0.93 g/kg, oral A. japonica extract 0.93 g kg^−1, one compartment model, read-out: AUC(0–24 h).
The mark [4] stands for this setting: rat, plasma, po, 0.93 g/kg, oral A. japonica extract 0.93 g kg^−1, read-out: area under the curve (AUC0–24 h).
Setting [5] is: rat plasma, oral A. japonica extract 0.93 g kg^−1, one compartment model.
[6] abbreviates: rat plasma, oral A. japonica extract 0.93 g kg^−1.
The mark [7] stands for this setting: rat plasma, LLOQ QC concentration, n = 6.
Where [8] appears, read: rat plasma, high QC concentration, n = 6.
[9] abbreviates: rat plasma, low QC concentration, n = 6.
[10] abbreviates: rat plasma, medium QC concentration, n = 6.
Setting [11] is: stored at about −80°C for 4 weeks, rat plasma, LLOQ QC concentration, n = 6.
Where [12] appears, read: stored at about −80°C for 4 weeks, rat plasma, high QC concentration, n = 6.
[13] abbreviates: stored at about −80°C for 4 weeks, rat plasma, medium QC concentration, n = 6.
The mark [14] stands for this setting: in vivo, rat plasma, oral A. japonica extract 0.93 g kg^−1, one compartment model.

Read-outs that look alike come from different tables or passages of the source.

Regarding `O=C(O)c1cc(O)c(O)c(O)c1` [Gallic acid, gallic acid], the AUC(0-t) in data set [1] (setting [3]) and in data set [1] (setting [4]) was 194 ± 44 ng·h/mL throughout. The total exposure AUC(0-inf) (in general, the area under the concentration-time curve extrapolated to infinity) in data set [1] (setting [5]) was 200 ± 43.9 ng·h/mL. In addition, the half-life – broadly, the time needed for the level to fall by half in the phase considered – in data set [1] (setting [5]) is 3.21 ± 4.56 h. The Tmax (as a rule, the time from dosing to the highest level) in data set [1] (setting [5]) turned out to be 1.4 ± 1.13 h. Further, the MRT (commonly a mean duration of stay, worked out from the concentration-time curve) in data set [1] (setting [5]) amounted to 4.5 ± 1.15 h. Also, in data set [1] (setting [5]), the MRT inf came to 5.33 ± 1.61 h. Moreover, in data set [1] (setting [6]), the Cmax stood at 35.5 ± 10.2 ng/mL. Also, the “Free-throw 3 times Accuracy” value in data set [2] (setting [7]) is on record as 92.5%; in data set [2] (setting [8]) it was 101%; in data set [2] (setting [9]), 114%; in data set [2] (setting [10]) it was 94.0%. In addition, the “24 h stability Accuracy” value in data set [2] (LLOQ QC concentration, n = 6) is 116%; in data set [2] (high QC concentration, n = 6), 103%; in data set [2] (low QC concentration, n = 6), 111%; in data set [2] (medium QC concentration, n = 6), 85.8%. In addition, the “Long stability (1 month) Accuracy” value in data set [2] (rat, 4 weeks) was 101%; in data set [2] (setting [11]) it was 95.6%; in data set [2] (setting [12]), 92.7%; in data set [2] (setting [13]) it was 98.4%.
In data set [1] (setting [14]), `C[C@@H]1O[C@@H](Oc2c(-c3ccc(O)c(O)c3)oc3cc(O)cc(O)c3c2=O)[C@H](O)[C@H](O)[C@H]1O` [Quercetin-3-rhamnoside, quercetin-3-rhamnoside] showed an AUC(0-inf) of 6.95 ± 20.7 ng·h/mL. In data set [1] (setting [14]), the half-life is 2.59 ± 2.8 h. Moreover, the Tmax in data set [1] (setting [14]) stood at 0.5 ± 0.6 h. Further, the MRT in data set [1] (setting [14]) was 5.08 ± 6.36 h. In addition, the MRT inf in data set [1] (setting [14]) came out at 7.09 ± 19.6 h. Besides, in data set [1] (in vivo, rat plasma, oral A. japonica extract 0.93 g kg^−1, read-out: area under the curve (AUC0–24 h)), the AUC(0-t) was determined as 6.44 ± 12 ng·h/mL. Besides, the Cmax in data set [1] (in vivo, rat plasma, oral A. japonica extract 0.93 g kg^−1) was 7.08 ± 8.28 ng/mL. For the same compound, the “Free-throw 3 times Accuracy” value is given as 115% in data set [2] (setting [7]), 85.0% in data set [2] (setting [8]), 90.4% in data set [2] (setting [9]) and 93.3% in data set [2] (setting [10]). Moreover, the “24 h stability Accuracy” value came to 93.7% in data set [2] (LLOQ QC concentration, n = 6); 87.3% in data set [2] (high QC concentration, n = 6); 96.3% in data set [2] (low QC concentration, n = 6); 93.3% in data set [2] (medium QC concentration, n = 6). Also, the “Long stability (1 month) Accuracy” value in data set [2] (setting [11]) came out at 114%; in data set [2] (setting [12]), 85.0%; in data set [2] (stored at about −80°C for 4 weeks, rat plasma, low QC concentration, n = 6) it was 92.2%; in data set [2] (setting [13]), 90.6%.
For the compound `O=c1c(O[C@@H]2O[C@H](CO)[C@@H](O)[C@H](O)[C@H]2O)c(-c2ccc(O)c(O)c2)oc2cc(O)cc(O)c12` [Isoquercitrin, isoquercitrin], the “Free-throw 3 times Accuracy” value in data set [2] (setting [7]) is 105%; in data set [2] (setting [8]), 91.0%; in data set [2] (setting [9]), 103%; in data set [2] (setting [10]) it was 96.9%.
In the same order, the values of `Oc1cc(O)c2c(c1)O[C@H](c1ccc(O)c(O)c1)[C@H](O)C2` [Epicatechin, epicatechin] are 105%, 99.4%, 111% and 111%.
For `O=C(O[C@@H]1Cc2c(O)cc(O)cc2O[C@@H]1c1ccc(O)c(O)c1)c1cc(O)c(O)c(O)c1` [Epicatechin gallate, epicatechin gallate], the “Free-throw 3 times Accuracy” value was found to be 109% in data set [2] (setting [7]), 88.0% in data set [2] (setting [8]), 98.4% in data set [2] (setting [9]) and 91.4% in data set [2] (setting [10]).
On to `COc1c(O)cc2c(c1O)[C@@H]1O[C@H](CO)[C@@H](O)[C@H](O)[C@H]1OC2=O` [Bergeninum, bergenin], for which the AUC(0-t) in data set [1] (setting [3]) is 1740 ± 666 ng·h/mL. The AUC(0-t) in data set [1] (setting [4]) came to 1740 ± 666 ng·h/mL. For the same compound, in data set [1] (setting [5]), the AUC(0-inf) is 1840 ± 769 ng·h/mL, the half-life is 3.87 ± 1.62 h, the time of peak concentration (Tmax) is 0.86 ± 0.52 h and the mean residence time (MRT) stood at 6.04 ± 1.05 h. For the same compound, in data set [1] (setting [5]), the MRT inf came out at 7.26 ± 2.17 h. Further, the Cmax in data set [1] (setting [6]) came to 288 ± 107 ng/mL. Also, the “Free-throw 3 times Accuracy” value in data set [2] (setting [7]) was found to be 106%. In addition, the “Free-throw 3 times Accuracy” value in data set [2] (setting [8]) is given as 87.3%. In data set [2] (setting [9]), the “Free-throw 3 times Accuracy” value was determined as 104%. Besides, the “Free-throw 3 times Accuracy” value in data set [2] (setting [10]) was determined as 94.0%.
